From patent US7329682B2, “Method for inhibiting 5-lipoxygenase using a benzoxazole derivative” (EWHA University-Industry Collaboration Foundation, priority 2003, dated 2008)
Like-named read-outs stand apart in the source and are kept apart here.

Experiments:
[1] = molecular target: T1, 5-lipoxygenase (Mus musculus, UniProt P48999); assay: Measurement of 5-lipoxygenase inhibition activity (free LTC4 from SCF-stimulated bone marrow-derived mast cells, enzyme immunoassay); format: cell-based, mouse (male BALB/cJ mice)
T1 construct: over 98% of cells were confirmed as mast cells originated from bone marrow; endogenous in cells; host or cells: bone marrow-derived mast cells from male BALB/cJ mice
T1 sequence (P48999 1-674): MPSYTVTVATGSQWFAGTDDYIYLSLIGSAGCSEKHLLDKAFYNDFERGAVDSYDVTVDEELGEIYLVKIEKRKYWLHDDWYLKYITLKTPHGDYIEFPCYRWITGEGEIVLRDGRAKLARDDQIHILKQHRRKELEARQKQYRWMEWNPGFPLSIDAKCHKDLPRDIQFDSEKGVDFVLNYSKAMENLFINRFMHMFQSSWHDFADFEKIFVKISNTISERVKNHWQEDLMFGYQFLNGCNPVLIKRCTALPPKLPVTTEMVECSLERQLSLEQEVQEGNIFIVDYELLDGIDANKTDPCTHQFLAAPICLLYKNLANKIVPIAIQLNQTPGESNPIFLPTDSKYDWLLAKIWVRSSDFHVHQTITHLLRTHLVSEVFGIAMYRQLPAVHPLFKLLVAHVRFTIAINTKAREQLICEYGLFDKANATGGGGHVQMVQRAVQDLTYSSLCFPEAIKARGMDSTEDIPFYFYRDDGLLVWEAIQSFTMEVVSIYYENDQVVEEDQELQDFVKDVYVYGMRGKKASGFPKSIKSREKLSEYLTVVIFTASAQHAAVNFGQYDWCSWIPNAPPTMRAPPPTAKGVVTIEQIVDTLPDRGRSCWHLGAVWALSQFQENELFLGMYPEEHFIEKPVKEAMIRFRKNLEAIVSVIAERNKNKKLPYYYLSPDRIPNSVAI
Protocol: Measurement of 5-lipoxygenase Inhibition Activity
The obtained cells were suspended in the enriched medium to a concentration of 1×10^6 cells/ml. […] 100 ng/ml of stem cell factor (SCF) was added to the culture medium, and then, the culture was centrifuged at 120 xg for 20 min at 4° C. Then, the supernatant was separated and the amount of free LTC4 was determined using an LTC4 enzyme immunoassay kit (Cayman Chemical, Ann Arbor, Mich., U.S.A.). The stem cell factor (SCF) was recombinantly expressed by the baculovirus/insect cell expression system. After 20-min stimulation, the supernatants were isolated for further analysis by enzyme immunoassay.

[2] = mast cells originated from bone marrow of BALB/cJ mice, 1×10^6 cells/ml, 30 min preincubation at 37° C., 100 ng/ml SCF stimulation 20 min, free LTC4 by enzyme immunoassay, vs non-treated control, read-out: IC50

| Structure (SMILES) | melting point [°C] | IC50 [1, 2] [µM] | IC50 [1] [µM] |
| --- | --- | --- | --- |
| Fc1ccc(-c2nc3ccccc3s2)cc1 [Example 13] | 128 to 130.5 | 11.2 | – |
| O=[N+]([O-])c1ccc2oc(Nc3ccc(N=Nc4ccccc4)cc3)nc2c1 [Example 10] | – | 28.4 | – |
| O=[N+]([O-])c1ccc(-c2nc3ccccc3s2)cc1 [Example 14] | – | – | 11 |
| Cc1ccc(-c2nc3ccccc3s2)cc1N [Example 19] | – | 4.16 | – |
| c1ccc(N=Nc2ccc(Nc3nc4ccccc4o3)cc2)cc1 [Example 4, 4-phenylazophenyl aminobenzoxazole] | – | 6.28 | – |
| N#Cc1ccc(-c2nc3ccccc3s2)cc1 [Example 16] | 120 to 123 | 4.32 | – |
| CCSc1ncccc1-c1nc2ccccc2s1 [Example 23] | – | 6.11 | – |
| CCc1ccc(Nc2nc3cc(Cl)ccc3o2)cc1 [Example 9] | 196 to 198 | – | 0.95 |
| COc1ccc(-c2nc3ccccc3s2)cc1OC [Example 21] | 132 to 133 | 2.76 | – |
| O=[N+]([O-])c1ccc(Cl)c(-c2nc3ccccc3s2)c1 [Example 18] | – | 2.5 | – |
| FC(F)Sc1ccccc1-c1nc2ccccc2s1 [Example 15] | 188 to 190 | 1.54 | – |
| Clc1ccc(Nc2nc3cccnc3s2)cc1Cl [Example 3] | 270 to 272 | 1.58 | – |
| CCc1ccc(Nc2nc3cccnc3s2)cc1 [Example 2] | – | 10.3 | – |
| ClCc1cccc(-c2nc3ccccc3s2)c1 [Example 22] | – | 2.49 | – |
| CCCCOc1ccc(-c2nc3ccccc3s2)cc1 [Example 17] | – | 9.3 | – |
| CCc1ccc(Nc2nc3cc([N+](=O)[O-])ccc3o2)cc1 [Example 11] | 161 to 163.5 | 23.9 | – |
| c1ccc(-c2nc3ccccc3s2)cc1 [Example 12, 2-phenyl benzothiazole] | – | 7.26 | – |
| Clc1ccccc1/C=C/c1nc2ccccc2s1 [Example 25] | – | 2.92 | – |
| CCc1ccc(Nc2nc3ccccc3o2)cc1 [Example 6] | 123 to 125.3 | 1.21 | – |
| Clc1ccc2oc(Nc3ccc(N=Nc4ccccc4)cc3)nc2c1 [Example 7] | 191 to 192.3 | 12.6 | – |
| Cc1ccc(-c2nc3ccccc3s2)cc1 [Example 20] | – | 5.27 | – |
| c1ccc(Nc2nc3ccccc3o2)cc1 [Example 5] | – | 8.91 | – |
